Source: US9776992B2, “1-oxo-1,2-dihydroisoquinolin-7-yl-(5-substituted-thiophen-2-yl)-sulfonamide compounds, formulations containing those compounds, and their use as AICARFT inhibitors in the treatment of cancers” (Eli Lilly and Company, priority 2014, dated 2017)

Molecular target: AICARFT (Homo sapiens, UniProt P31939)
Experiment: AICARFT enzyme assay (LC-MS of IMP and ZMP)
Type: biochemical
Parameters: made in house; host or cells: E. coli BL21(DE3)
Conditions: for IC50: Mean ± SEM, 25 μM ZMP, 100 μM 10-F-THFA, 3 nM ATIC enzyme, 1 hour at room temperature; for AICARFT inhibition in enzyme assay (in words): summary of Table 15
Description: Human AICARFT (NCBI accession number: NM_004044.6) cDNA is purchased from Openbiosystem Co. (Cat# MHS1011-62310, Clone ID: 4300570, accession: BC008879). The nucleotide sequence encoding full-length human AICARFT is inserted into pET21d (Novagen) vector with an N-terminal HIS tag. Bacterial BL21(DE3) (Novagen) is used as an expression host, and the induction of protein expression is carried out in 2×TY media with 1 mM IPTG at 18° C. overnight. Cell pellets are stored at −80° C. for subsequent protein purification. Protein purification is conducted at 4° C. Frozen cell pellets are lysed by incubation with stirring in 50 mL cold lysis buffer (50 mM Tris-HCl, pH 7.5, 300 mM NaCl, 10% glycerol, 0.1% Triton X-100, 0.5 mg/mL lysozyme, 5 U/mL benzonase, 1 mM DTT, 10 mM imidazole, and Roche complete EDTA-free protease inhibitor) per liter cell pellet and sonication. Cell lysates are clarified by centrifugation in a Bechman JA-18 rotor for 45 min at 16,500 rpm. The supernatant is incubated with Ni-NTA agarose resin (Qiagen) for 3 hours, followed by an initial batch wash with 10 resin volume of buffer A (50 mM Tris-HCl, pH 7.5, 300 mM NaCl, 10% glycerol, 1 mM DTT, 10 mM imidazole) containing 0.1% Triton X-100. The resin is then packed onto a column and washed with buffer A. The HIS-tagged AICARFT protein is eluted with 10-500 mM imidazole gradient in buffer A. Pooled HIS-AICARFT containing fractions are concentrated, loaded onto a HiLoad 26/600 Superdex 200 column (GE Healthcare Biosciences), and eluted with storage buffer (50 mM Tris-HCl, pH7.5, 150 mM NaCl, 1 mM DTT, 10% Glycerol). Fractions containing HIS-AICARFT are pooled and protein concentration determined by the Bradford assay using BSA as standard. The protein is aliquoted and stored at −80° C.
One of the substrates of the enzyme reaction, 10-formyltetrahydrofolate (10-F-THFA), has limited chemical stability and is therefore synthesized on the same day that the ATIC enzyme assay is performed. The general synthetic route is described in P. Rowe, Methods Enzymol., 18, 733-735, (1971) and J. Rabinowitz, Methods Enzymol., 6, 814-815, (1963). The first step in this synthesis is the conversion of folinic acid (Sigma CAS 1492-18-8) to 5,10-methenyltetrahydrofolic acid (5,10-M-THFA). This conversion typically takes place the day before the enzyme assay is performed, but can be performed up to 1 week earlier and stored at room temperature. To folinic acid (81.6 mg) is added β-mercaptoethanol (2 mL), and 37% concentrated HCl (80 μL), is added. This reaction incubates a minimum of 3 hours at room temperature, with occasional mixing. The color changes from clear to yellow visually, and the complete conversion of folinic acid to 5,10-M-THFA is monitored by spectral analysis using a quartz cuvette. The UV absorption will change from 266 nm to 356 nm during this step. […] On the morning of the assay, the 80 mM 5,10-M-THFA is diluted to 1.6 mM in 40 μM ammonium bicarbonate (made fresh that day). This reaction incubates 3-5 hours at room temperature. The color changes from yellow to clear visually, and the conversion of 5,10-M-THFA to 10-F-THFA is monitored by spectral analysis using a quartz cuvette. The UV absorption will change from 356 nm to 258 nm during this step. […] Test compounds are prepared in DMSO to make a 10 mM stock solution. The stock solution is serially diluted 3-fold in DMSO to obtain a ten-point dilution curve with final compound concentrations ranging from 100 μM to 5 nM. The final DMSO concentration in the assay is 5%.
To each well of a 384-well polypropylene assay plate (NUNC 264573), […] of DMSO (control wells) or compound in DMSO and 9 μL of 55.56 μM ZMP (Sigma-Aldrich CAS 3031-94-5) in water are added. Then, 10 μL of 200 μM 10-F-THFA and 6 nM ATIC enzyme in 40 μM ammonium bicarbonate is added. […] The assay is incubated for 1 hour at room temperature, after which 40 μL of ACN is added to stop the reaction.

AICARFT, sequence (P31939 whole entry): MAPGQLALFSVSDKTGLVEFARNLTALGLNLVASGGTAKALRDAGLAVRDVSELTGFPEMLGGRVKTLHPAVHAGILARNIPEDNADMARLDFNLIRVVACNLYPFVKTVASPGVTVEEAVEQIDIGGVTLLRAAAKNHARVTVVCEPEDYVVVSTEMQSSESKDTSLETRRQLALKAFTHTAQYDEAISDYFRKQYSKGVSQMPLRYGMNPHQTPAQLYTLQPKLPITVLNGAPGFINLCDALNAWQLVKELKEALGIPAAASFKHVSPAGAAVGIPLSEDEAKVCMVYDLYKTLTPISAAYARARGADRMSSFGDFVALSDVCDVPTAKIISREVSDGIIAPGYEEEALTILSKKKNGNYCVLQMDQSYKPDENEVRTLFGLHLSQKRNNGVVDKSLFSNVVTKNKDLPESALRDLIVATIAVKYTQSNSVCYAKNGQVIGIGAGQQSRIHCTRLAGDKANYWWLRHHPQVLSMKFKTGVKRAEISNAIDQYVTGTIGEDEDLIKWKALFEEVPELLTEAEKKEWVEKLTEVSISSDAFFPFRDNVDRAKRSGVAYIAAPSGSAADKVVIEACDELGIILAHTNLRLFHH

| SMILES | IC50 [nM] | AICARFT inhibition in enzyme assay (in words) |
| --- | --- | --- |
| CCC1(C)CC(c2ccc(S(=O)(=O)Nc3cc4c(=O)[nH]ccc4cc3F)s2)=CNC1=O (single isomer, unassigned; isomer 1) [Example 84, 5-(5-Ethyl-5-methyl-6-oxo-1,4,5,6-tetrahydropyridin-3-yl)-N-(6-fluoro-1-oxo-1,2-dihydroisoquinolin-7-yl)thiophe2ne-2-sulfonamide, Isomer 1] | < 5.08 | inhibit AICARFT |
| CC1(C)CC(c2ccc(S(=O)(=O)Nc3cc4c(=O)[nH]ccc4cc3F)s2)=CNC1=O [Example 81, 5-(5,5-Dimethyl-6-oxo-1,4,5,6-tetrahydropyridin-3-yl)-N-(6-fluoro-1-oxo-1,2-dihydroisoquinolin-7-yl)thiophene-2-sulfonamide] | < 5.08 | inhibit AICARFT |
| O=c1[nH]ccc2cc(F)c(NS(=O)(=O)c3ccc(N4C[C@@H](O)C(F)(F)C4)s3)cc12 [Example 41, 5-[(4R)-3,3-difluoro-4-hydroxypyrrolidin-1-yl]-N-(6-fluoro-1-oxo-1,2-dihydroisoquinolin-7-yl)thiophene-2-sulfonamide] | 10.6 | inhibit AICARFT |
| O=c1[nH]ccc2cc(F)c(NS(=O)(=O)c3ccc([C@@H]4CC[C@@H](O)C4)s3)cc12 (single isomer, unassigned) [Example 46] | 29.1 | inhibit AICARFT |
| O=c1[nH]ccc2cc(F)c(NS(=O)(=O)c3ccc(N4C[C@@H](O)[C@@H](F)C4)s3)cc12 (single isomer, unassigned) [Example 33] | 7.75 | inhibit AICARFT |
| O=c1[nH]ccc2cc(F)c(NS(=O)(=O)c3ccc(N4CC[C@@H](O)C4)s3)cc12 [Example 1, N-(6-Fluoro-1-oxo-1,2-dihydroisoquinolin-7-yl)-5-[(3R)-3-hydroxypyrrolidin-1-yl]thiophene-2-sulfonamide] | – | inhibit AICARFT |
